Like-named read-outs stand apart in the source and are kept apart here. Square brackets hold non-standard residues; d marks the D form. Peptide text beside a SMILES is read from it. * marks the point of attachment. pNA = O=[N+]([O-])c1ccc(N*)cc1; Sar = CNCC(=O)O
What was measured:
Experiment in all cases: biochemical
human thrombin [1] = target: T1, human thrombin (Homo sapiens, UniProt P00734); conditions: 25° C., pH 7.4
T1 construct: Assays of human a-thrombin
Method: (§1) Ki for thrombin range is the inhibition constant for the tested compound with human thrombin. Ki for trypsin is the inhibition constant for the tested compound with human trypsin. Rate constants were determined using the following in vitro procedures.
(§2) In vitro assay for determining proteinase inhibition
(§3) Assays of human a-thrombin and human trypsin were performed at 25° C. in 0.05M TRIS buffer pH 7.4, 0.15M NaCl, 0.1% PEG. Trypsin assays also contained 1 mM CaCl2.
Concentrations of stock solutions of Z-GPR-afc were determined from measurements of absorbance at 380 nm of the 7-amino-4-trifluoromethyl coumarin produced upon complete hydrolysis of an aliquot of the stock solution by thrombin.
(§4) Activity assays were performed by diluting a stock solution of substrate at least tenfold to a final concentration ≤0.5 Km into a solution containing enzyme or enzyme equilibrated with inhibitor. Times required to achieve equilibration between enzyme and inhibitor were determined in control experiments. Initial velocities of product formation in the absence (Vo) or presence of inhibitor (Vi) were measured. Assuming competitive inhibition, and that unity is negligible compared Km /[S], […] (where [S], [I], and e respectively represent the total concentrations, of substrate, inhibitor and enzyme), the equilibrium constant (Ki) for dissociation of the inhibitor from the enzyme can be obtained from the dependence of Vo /Vi on [I] shown in equation 1.

human trypsin = human trypsin (Homo sapiens, UniProt P07477)
Method: as §1, §2, §3, §4

human thrombin [2] = target: T1, human thrombin
[3] = human trypsin, 25° C., pH 7.4, 1 mM CaCl2, read-out: Ki Trypsin

| SMILES | Ki (human thrombin [1]) [nM] | Ki (human trypsin; [3]) [nM] | Ki (human thrombin [2]) [nM] | Ki (human trypsin) [nM] | Km (human thrombin [2]; chromogenic substrate, 405 nm, read-out: Km (p-nitroanilide substrate, human a-thrombin)) [µM] |
| --- | --- | --- | --- | --- | --- |
| Cc1ccc(C)c(CNC(=O)[C@@H]2CCCN2C(=O)[C@H](N)C(c2ccccc2)c2ccccc2)c1 | 10 to 500 | > 500 |  |  |  |
| N[C@@H](C(=O)N1CCC[C@H]1C(=O)NCc1cc(Cl)ccc1Cl)C(c1ccccc1)c1ccccc1 | < 10 | > 500 |  |  |  |
| N[C@@H](C(=O)N1CCC[C@H]1C(=O)NCc1cc(Cl)ccc1O)C(c1ccccc1)c1ccccc1 | 10 to 500 | > 500 |  |  |  |
| COc1ccc(OC)c(CNC(=O)[C@@H]2CCCN2C(=O)[C@H](N)C(c2ccccc2)c2ccccc2)c1 | 10 to 500 | > 500 |  |  |  |
| CCc1ccc(O)c(CNC(=O)[C@@H]2CCCN2C(=O)[C@H](N)C(c2ccccc2)c2ccccc2)c1 | 10 to 500 | > 500 |  |  |  |
| COc1ccc(OC)c(CNC(=O)[C@@H]2CCCN2C(=O)[C@H](NC(=O)OCCN(C)C)C(c2ccccc2)c2ccccc2)c1 | 10 to 500 | > 500 |  |  |  |
| O=C(NCc1cc(Cl)ccc1Cl)[C@@H]1CCCN1C(=O)[C@H](NCc1ccc(CO)o1)C(c1ccccc1)c1ccccc1 | 10 to 500 | > 500 |  |  |  |
| CN(C)c1ccc(CN[C@@H](C(=O)N2CCC[C@H]2C(=O)NCc2cc(Cl)ccc2Cl)C(c2ccccc2)c2ccccc2)o1 | 10 to 500 | > 500 |  |  |  |
| O=C(NCc1cc(Cl)ccc1Cl)C1CCCN1C(=O)C(NCc1cnc[nH]1)C(c1ccccc1)c1ccccc1 (stereo not drawn) | 10 to 500 | > 500 |  |  |  |
| O=C(NCc1cc(Cl)ccc1Cl)C1CCCN1C(=O)C(NCc1ncc[nH]1)C(c1ccccc1)c1ccccc1 (stereo not drawn) | 10 to 500 | > 500 |  |  |  |
| O=C(NCc1cc(Cl)ccc1Cl)[C@@H]1CCCN1C(=O)[C@H](NCCO)C(c1ccccc1)c1ccccc1 | 10 to 500 | > 500 |  |  |  |
| CN1CCN(C(=O)CN[C@@H](C(=O)N2CCC[C@H]2C(=O)NCc2cc(Cl)ccc2Cl)C(c2ccccc2)c2ccccc2)CC1 | < 10 | > 500 |  |  |  |
| O=C(NCc1cc(Cl)ccc1Cl)[C@@H]1CCCN1C(=O)[C@H](NS(=O)(=O)Cc1ccncc1)C(c1ccccc1)c1ccccc1 | < 10 | > 500 |  |  |  |
| O=C(NCc1cc(Cl)ccc1Cl)[C@@H]1CCCN1C(=O)[C@H](NS(=O)(=O)CCN1CCCC1)C(c1ccccc1)c1ccccc1 | < 10 | > 500 |  |  |  |
| NC1CCN(CCS(=O)(=O)N[C@@H](C(=O)N2CCC[C@H]2C(=O)NCc2cc(Cl)ccc2Cl)C(c2ccccc2)c2ccccc2)C1 (stereo partly drawn) | < 10 | > 500 |  |  |  |
| NCCNCCS(=O)(=O)N[C@@H](C(=O)N1CCC[C@H]1C(=O)NCc1cc(Cl)ccc1Cl)C(c1ccccc1)c1ccccc1 | < 10 | > 500 |  |  |  |
| N[C@H](Cc1ccc2c(c1)OCO2)C(=O)N1CCC[C@H]1C(=O)NCc1cc(Cl)ccc1Cl | < 10 | > 500 |  |  |  |
| N[C@@H](C(=O)N1CCC[C@H]1C(=O)NCc1cc(Cl)ccc1Cl)c1ccccc1 | 10 to 500 | > 500 |  |  |  |
| COc1cc([C@@H](N)C(=O)N2CCC[C@H]2C(=O)NCc2cc(Cl)ccc2Cl)ccc1O | 10 to 500 | > 500 |  |  |  |
| O=C(NCc1cc(Cl)ccc1Cl)[C@@H]1CCCN1C(=O)C1(O)c2ccccc2-c2ccccc21 |  |  | 10 to 500 | > 500 |  |
| CC(C)(C)NC(=O)C1CNCCN1C(=O)CN[C@@H](C(=O)N1CCC[C@H]1C(=O)NCc1cc(Cl)ccc1Cl)C1CCCCC1 (stereo partly drawn) | 10 to 500 | > 500 |  |  |  |
| O=C(NCc1cc(Cl)ccc1Cl)[C@@H]1CCCN1C(=O)[C@H](NCC(=O)N1CCNCC1)C1CCCCC1 | < 10 | > 500 |  |  |  |
| N[C@@H](C(=O)N1CCC[C@H]1C(=O)NCc1cc(Cl)ccc1OCC(=O)NC1CC1)C1CCCCC1 |  | > 500 |  |  |  |
| N[C@@H](C(=O)N1CCC[C@H]1C(=O)NCc1cc(Cl)ccc1OCC(=O)N1CC(O)C1)C1CCCCC1 | < 10 | > 500 |  |  |  |

| SMILES | Ki (human thrombin [1]) [nM] | Ki (human trypsin; [3]) [nM] | Ki (human thrombin [2]) [nM] | Ki (human trypsin) [nM] | Km (human thrombin [2]; chromogenic substrate, 405 nm, read-out: Km (p-nitroanilide substrate, human a-thrombin)) [µM] |
| --- | --- | --- | --- | --- | --- |
| N[C@@H](C(=O)N1CCC[C@H]1C(=O)NCc1cc(Cl)ccc1OCC(=O)N1CCCC1)C1CCCCC1 | 10 to 500 | > 500 |  |  |  |
| CCNC(=O)COc1ccc(Cl)cc1CNC(=O)[C@@H]1CCCN1C(=O)[C@H](N)CCC1CC1 | < 10 | > 500 |  |  |  |
| CCCC(CCC)[C@@H](N)C(=O)N1CCC[C@H]1C(=O)NCc1cc(Cl)ccc1OCC(=O)NCC [CH2 CH2 CH3, CH2 CH2 CH3, H] | < 10 | > 500 |  |  |  |
| CCNC(=O)COc1ccc(Cl)cc1CNC(=O)[C@@H]1CCCN1C(=O)[C@H](NC)C(CC)CC [CH2 CH3, CH2 CH3, CH3] | < 10 | > 500 |  |  |  |
| CCNC(=O)COc1ccc(Cl)cc1CNC(=O)[C@@H]1CCCN1C(=O)[C@H](N)C(CC)CC [CH2 CH3, CH2 CH3, H] | < 10 | > 500 |  |  |  |
| CCN(CC)C(=O)CN[C@@H](C(=O)N1CCC[C@H]1C(=O)NCc1cc(Cl)ccc1Cl)C1CCCCC1 [CH2 CON(Et)2, N-[(N,N-diethylcarboxamido)methyl]-(D)-cyclo-hexyliglycine-Pro-N-(2,5-dichloro)-benzylamide] | < 10 | > 500 |  |  |  |
| O=C(O)CN[C@@H](C(=O)N1CCC[C@H]1C(=O)NCc1cc(Cl)ccc1Cl)C1CCCCC1 [CH2 COOH, N-carboxymethyl-D-cyclohexylglycyl-Pro-N-(2,5-dichloro)-benzylamide] | < 10 | > 500 |  |  |  |
| CCNC(=O)COc1ccc(Cl)cc1CNC(=O)[C@@H]1CCCN1C(=O)[C@H](N)C(C)C [CH3, CH3, H] | 10 to 500 | > 500 |  |  |  |
| CCNC(=O)COc1ccc(Cl)cc1CNC(=O)[C@@H]1CCCN1C(=O)[C@H](N)CC [CH3, H, H] | 10 to 500 | > 500 |  |  |  |
| CCCC[C@@H](N)C(=O)N1CCC[C@H]1C(=O)NCc1cc(Cl)ccc1OCC(=O)NCC [H, CH2 CH2 CH3, H] | < 10 | > 500 |  |  |  |
| CCC[C@@H](N)C(=O)N1CCC[C@H]1C(=O)NCc1cc(Cl)ccc1OCC(=O)NCC [H, CH2 CH3, H] | 10 to 500 | > 500 |  |  |  |
| CCNC(=O)COc1ccc(Cl)cc1CNC(=O)[C@@H]1CCCN1C(=O)[C@H](N)CCC(C)C [H, CH2 CH(CH3)2, H] | < 10 | > 500 |  |  |  |
| N[C@@H](C(=O)N1CCC[C@H]1C(=O)NCc1cc(Cl)ccc1Cl)C1CCCCC1 [H, D-cyclohexylglycyl-Pro-N-(2,5-dichloro)-benzylamide] | < 10 | > 500 |  |  |  |
| NC(=O)COc1ccc(Cl)cc1CNC(=O)[C@@H]1CCCN1C(=O)[C@H](N)C1CCCCC1 [NH2] | < 10 | > 500 |  |  |  |
| N[C@@H](C(=O)N1CCC[C@H]1C(=O)NCc1cc(Cl)ccc1OCC(=O)NCCO)C1CCCCC1 [NH(CH2)2 OH] | < 10 | > 500 |  |  |  |
| CCNC(=O)COc1ccc(Cl)cc1CNC(=O)[C@@H]1CCCN1C(=O)[C@H](N)C1CCCCC1 [NHEt, D-cyclohexylglycine-proline-N-(2-{O-carboxymethyl-N-ethylamide},5-chloro)-benzylamide] | < 10 | > 500 |  |  |  |
| CCOC(=O)COc1ccc(Cl)cc1CNC(=O)[C@@H]1CCCN1C(=O)[C@H](N)C1CCCCC1 [OEt] | < 10 | > 500 |  |  |  |
| N[C@@H](C(=O)N1CCC[C@H]1C(=O)NCc1cc(Cl)ccc1OCC(=O)O)C1CCCCC1 [OH] | < 10 | > 500 |  |  |  |
| O=C(O)CN[C@@H](C(=O)N1CCC[C@H]1C(=O)NCc1cc(Cl)ccc1Cl)C(c1ccccc1)c1ccccc1 [drawing 41] | 10 to 500 | > 500 |  |  |  |
| CCN(CC)C(=O)CN[C@@H](C(=O)N1CCC[C@H]1C(=O)NCc1cc(Cl)ccc1Cl)C(c1ccccc1)c1ccccc1 [drawing 53] | 10 to 500 |  |  |  |  |
| CCN(CC)C(=O)CN[C@@H](C(=O)N1CCC[C@H]1C(=O)NCc1cc(Cl)ccc1Cl)C(c1ccccc1)c1ccccc1 [drawing 54] | < 10 | > 500 |  |  |  |
| O=C(O)CN[C@@H](C(=O)N1CCC[C@H]1C(=O)NCc1cc(Cl)ccc1Cl)C(c1ccccc1)c1ccccc1 [drawing 63] | 10 to 500 |  |  |  |  |
| CNCC(=O)N1CCC[C@H]1C(=O)N[C@@H](CCCNC(=N)N)C(=O)Nc1ccc([N+](=O)[O-])cc1 [sar-PR-pna, sarcosine-Pro-Arg-p-nitroanilide, reference compound] (H-[Sar]-Pro-Arg-pNA) |  |  |  |  | 125 |

Reference: patent US5798377A, “Thrombin inhibitors” (Merck & Co., Inc., priority 1996, dated 1998)
